Results reported in US10265310B2, “6-membered cyclic amines or lactames substituted with urea and phenyl” (GRÜNENTHAL GMBH, priority 2016, dated 2019).

Experiments:
FPR1 = FPR1 (Homo sapiens (Human), UniProt P21462); test: Agonistic activity (calcium FLIPR) in hFPR1-Gα15-CHO cells; assay type: cell-based; conditions: FLIPR Calcium 5 dye fluorescence, agonistic response
Description: (§1) Cells (hFPR1-Gα15-CHO or hFPR2-Aq-CHO) are suspended in 10 mL of respective complete medium (F12(1×) HAM media; 10% HI-FBS; 0.1 mg/ml Hygromycin B and 0.2 mg/ml Zeocin [for hFPR1 only]; 0.4 mg/mL Geneticin and 0.25 mg/ml Zeocin [for hFPR2-Aq only]) and viability is checked using Trypan Blue exclusion. After washing, the cells are plated at 10,000 cells per well in 40 μL complete medium in a 384-well sterile clear bottom black plate and incubated in a 5% CO2 incubator at 37° C. for 18 hours. Plating media is removed from each well by decanting and gentle tapping before 30 μL of 0.5× Calcium 5 dye solution (0.5×FLIPR Calcium 5 dye (Molecular devices, R8186)); HBSS; 20 mM HEPES; 2.5 mM Probenecid; 0.025% Pluronic F-127; pH adjusted to 7.4) is added to each well and the plate is then incubated at 37° C. for 30 minutes. For the assay the plate is equilibrated at room temperature for 10 minutes before placing it in the FLIPR. Compounds are dissolved in DMSO and serially diluted over an 11 point half log (3.16 fold) dilution (2 mM to 20 nM). Compounds are then diluted 1:50 in assay buffer (HBSS; 20 mM HEPES; 2.5 mM Probenecid; 0.05% gelatin; 0.1% BSA; pH adjusted to 7.4) just before performing the assay. Compounds are finally added to the respective wells of the cell plate (final assay concentration 10 μM to 100 pM) using the FLIPR (e.g. FLIPR-Tetra, Molecular Devices) and fluorescence readings are captured for 5 minutes. The increase in fluorescence from the basal reading in the presence of the compounds is compared with that of the control wells (wells having no compound) to calculate the activity of the compounds. The EC50 values of the compounds can be determined using e.g. Graph pad Prism software.
(§2) Assay Method for Measuring Agonistic Activity of Compounds in hFPR1-Gα15-CHO and hFPR2-Aq-CHO Cell
(§3) Cryo-vial containing 6×10^6 cells (hFPR1-Gα15-CHO or hFPR2-Aq-CHO) was thawed in a 37° C. water bath. Cells were suspended in 10 ml of respective complete growth media (F12(1×) HAM media (Gibco; Cat#11765); 10% HI-FBS (Gibco; Cat#10082); 0.1 mg/ml Hygromycin B (Invitrogen; Cat#10687-010) [for hFPR1 only]; 0.2 mg/ml Zeocin (Invitrogen; Cat#R25001) [for hFPR1 only]; 0.4 mg/ml Geneticin (Gibco; Cat#10131) [for hFPR2-Aq only]; 0.25 mg/ml Zeocin (Invitrogen; Cat#R25001) [for hFPR2-Aq only]) in a 15 ml centrifuge tube. The cell viability was checked with the help of Trypan Blue dye. Upon washing the cells, those were plated in a 384-well sterile clear bottom black plate (Greiner Bioone Cat#781091) so that, each well contained 10,000 cells in 40 μl complete growth media. The plate was incubated in a 5% CO2 incubator at 37° C. for 18 hours.
(§4) Before assay on the next day, the cell plating media was removed from each well of the plate by decanting and gentle tapping. 30 μl, 0.11 of 0.5× Calcium 5 dye solution (0.5×FLIPR Calcium 5 dye (Molecular devices Cat# R8186); HBSS (Invitrogen; Cat#14025); 20 mM HEPES (Sigma; Cat#H0887); 2.5 mM Probenecid (Sigma; Cat#P8761); 0.025% Pluronic F-127 (Sigma; Cat#P2443); pH adjusted to 7.4) was added to each well. The plate was then incubated at 37° C. for 30 minutes. Following which the plate was equilibrated at room temperature for 10 minutes before placing it in a 384 well FLIPR for assay. Compounds were dissolved in DMSO and serially diluted following 11 point half log (3.16 fold) dilution with a starting concentration of 2 mM (Final assay concentration 10 μM). Aliquots of above mentioned each dilution was mixed with assay buffer (HBSS (Invitrogen; Cat#14025); 20 mM HEPES (Sigma; Cat#H0887); 2.5 mM Probenecid (Sigma; Cat#P8761); 0.05% gelatin (Sigma; Cat#G1890); 0.1% BSA (Sigma; Cat#A3059); pH adjusted to 7.4) just before performing the assay. Compounds were added to the respective wells of the assay ready cell plate with the help of the FLIPR (FLIPR Tetra) and fluorescence readings were captured for 5 minutes to measure any agonistic response of the compounds. […]

FPR2 = FPR2 (Homo sapiens (Human), UniProt P25090); test: Agonistic activity (calcium FLIPR) in hFPR2-Aq-CHO cells; assay type: cell-based; conditions: FLIPR Calcium 5 dye fluorescence, agonistic response
Description: as §1, §2, §3, §4

FPR1, sequence (P21462 whole entry): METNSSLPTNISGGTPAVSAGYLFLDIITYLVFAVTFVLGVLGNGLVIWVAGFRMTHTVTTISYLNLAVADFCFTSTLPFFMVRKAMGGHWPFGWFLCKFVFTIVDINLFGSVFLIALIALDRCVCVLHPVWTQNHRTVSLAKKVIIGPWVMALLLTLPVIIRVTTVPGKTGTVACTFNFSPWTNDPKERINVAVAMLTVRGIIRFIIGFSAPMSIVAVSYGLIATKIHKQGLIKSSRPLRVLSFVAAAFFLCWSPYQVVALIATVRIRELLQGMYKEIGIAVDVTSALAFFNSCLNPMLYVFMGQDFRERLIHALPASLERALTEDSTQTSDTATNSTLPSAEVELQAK
FPR2, sequence (P25090 whole entry): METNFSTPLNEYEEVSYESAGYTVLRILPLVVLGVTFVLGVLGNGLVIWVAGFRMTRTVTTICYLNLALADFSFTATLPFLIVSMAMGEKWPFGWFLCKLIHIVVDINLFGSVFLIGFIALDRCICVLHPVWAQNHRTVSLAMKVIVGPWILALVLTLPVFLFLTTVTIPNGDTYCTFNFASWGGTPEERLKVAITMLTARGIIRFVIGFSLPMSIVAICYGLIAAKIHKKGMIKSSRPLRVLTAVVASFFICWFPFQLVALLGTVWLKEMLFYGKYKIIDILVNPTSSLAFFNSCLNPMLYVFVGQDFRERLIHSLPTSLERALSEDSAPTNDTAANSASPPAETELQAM

EC50 (FPR1) [nM]	EC50 (FPR2) [nM]	SMILES
1 to 1000	< 1	COc1ccc([C@@H]2CC(=O)NC[C@H]2NC(=O)Nc2ccc(Cl)cc2)cc1 (racemic) [Example 1, rac-trans-1-(4-chlorophenyl)-3-(4-(4-methoxyphenyl)-6-oxopiperidin-3-yl)urea]
< 1	< 1	COc1ccc([C@@H]2CCN(C(C)=O)C[C@H]2NC(=O)Nc2ccc(Cl)cc2)cc1 (racemic) [Example 2, rac-trans-1-(1-acetyl-4-(4-methoxyphenyl)piperidin-3-yl)-3-(4-chlorophenyl)urea]
1 to 1000	< 1	COc1ccc([C@@H]2CC(=O)NC[C@H]2NC(=O)Nc2ccc(Br)cc2)cc1 (racemic) [Example 3, rac-trans-1-(4-bromophenyl)-3-(4-(4-methoxyphenyl)-6-oxopiperidin-3-yl)urea]
1 to 1000	< 1	COc1ccc([C@@H]2CCNC[C@H]2NC(=O)Nc2ccc(Cl)cc2)cc1 (racemic) [Example 4, rac-trans-1-(4-chlorophenyl)-3-(4-(4-methoxyphenyl)piperidin-3-yl)urea]
1 to 1000	< 1	COc1cc(F)c([C@@H]2CCN(C(C)=O)C[C@H]2NC(=O)Nc2ccc(Cl)cc2)c(F)c1 (racemic) [Example 5, rac-trans-1-(1-acetyl-4-(2,6-difluoro-4-methoxyphenyl)piperidin-3-yl)-3-(4-chlorophenyl)urea]
1 to 1000	< 1	COc1ccc([C@@H]2CCNC[C@H]2NC(=O)Nc2ccc(Br)cc2)cc1 (racemic) [Example 6, rac-trans-1-(4-bromophenyl)-3-(4-(4-methoxyphenyl)piperidin-3-yl)urea]
1 to 1000	< 1	COc1cc(F)c([C@@H]2CCNC[C@H]2NC(=O)Nc2ccc(Br)cc2)c(F)c1 (racemic) [Example 8, rac-trans-1-(4-bromophenyl)-3-(4-(2,6-difluoro-4-methoxyphenyl)piperidin-3-yl)urea]
1 to 1000	< 1	COc1cc(F)c([C@@H]2CCNC[C@H]2NC(=O)Nc2ccc(Cl)cc2)c(F)c1 (racemic) [Example 9, rac-trans-1-(4-chlorophenyl)-3-(4-(2,6-difluoro-4-methoxyphenyl)piperidin-3-yl)urea]
< 1	< 1	COc1ccc([C@@H]2CCN(C(=O)C3CC3)C[C@H]2NC(=O)Nc2ccc(Cl)cc2)cc1 (racemic) [Example 12, rac-trans-1-(4-chlorophenyl)-3-(1-(cyclopropanecarbonyl)-4-(4-methoxyphenyl)piperidin-3-yl)urea]
< 1	< 1	COc1ccc([C@@H]2CCN(C(=O)CO)C[C@H]2NC(=O)Nc2ccc(Cl)cc2)cc1 (racemic) [Example 13, rac-trans-1-(4-chlorophenyl)-3-(1-(2-hydroxyacetyl)-4-(4-methoxyphenyl)piperidin-3-yl)urea]
< 1	< 1	COc1ccc([C@@H]2CCN(C(=O)C(C)(F)F)C[C@H]2NC(=O)Nc2ccc(Cl)cc2)cc1 (racemic) [Example 14, rac-trans-1-(4-chlorophenyl)-3-(1-(2,2-difluoropropanoyl)-4-(4-methoxyphenyl)piperidin-3-yl)urea]
< 1	< 1	COCCC(=O)N1CC[C@@H](c2ccc(OC)cc2)[C@H](NC(=O)Nc2ccc(Cl)cc2)C1 (racemic) [Example 15, rac-trans-1-(4-chlorophenyl)-3-(4-(4-methoxyphenyl)-1-(3-methoxypropanoyl)piperidin-3-yl)urea]
< 1	< 1	COc1ccc([C@@H]2CCN(C(=O)C3CCOCC3)C[C@H]2NC(=O)Nc2ccc(Cl)cc2)cc1 (racemic) [Example 16, rac-trans-1-(4-chlorophenyl)-3-(4-(4-methoxyphenyl)-1-(tetrahydro-2H-pyran-4-carbonyl)piperidin-3-yl)urea]
< 1	< 1	COc1ccc([C@@H]2CCN(C(=O)C(C)C)C[C@H]2NC(=O)Nc2ccc(Cl)cc2)cc1 (racemic) [Example 17, rac-trans-1-(4-chlorophenyl)-3-(1-isobutyryl-4-(4-methoxyphenyl)piperidin-3-yl)urea]
< 1	< 1	COc1ccc([C@@H]2CCN(C(=O)CC(C)C)C[C@H]2NC(=O)Nc2ccc(Cl)cc2)cc1 (racemic) [Example 18, rac-trans-1-(4-chlorophenyl)-3-[4-(4-methoxyphenyl)-1-(3-methyl-butanoyl)-piperidin-3-yl]-urea]
1 to 1000	1 to 1000	COc1ccc([C@@H]2CCN(C(C)=O)C[C@H]2NC(=O)Nc2ccc(Cl)nc2)cc1 (racemic) [Example 19, rac-trans-1-(1-acetyl-4-(4-methoxyphenyl)piperidin-3-yl)-3-(6-chloropyridin-3-yl)urea]
1 to 1000	< 1	COc1ccc([C@@H]2CC(=O)N(CC(N)=O)C[C@H]2NC(=O)Nc2ccc(Cl)cc2)cc1 (racemic) [Example 20, rac-trans-2-(5-(3-(4-chlorophenyl)ureido)-4-(4-methoxyphenyl)-2-oxopiperidin-1-yl)acetamide]
< 1	< 1	COC(=O)CN1C[C@@H](NC(=O)Nc2ccc(Cl)cc2)[C@H](c2ccc(OC)cc2)CC1=O (racemic) [Example 21, rac-trans-methyl 2-(5-(3-(4-chlorophenyl)ureido)-4-(4-methoxyphenyl)-2-oxopiperidin-1-yl)acetate]
1 to 1000	< 1	COc1cc(F)c([C@@H]2CC(=O)NC[C@H]2NC(=O)Nc2ccc(Cl)cc2)c(F)c1 (racemic) [Example 23, rac-trans-1-(4-chlorophenyl)-3-(4-(2,6-difluoro-4-methoxyphenyl)-6-oxopiperidin-3-yl)urea]
1 to 1000	< 1	COc1ccc([C@@H]2CC(=O)N(CC3CC3)C[C@H]2NC(=O)Nc2ccc(Cl)cc2)cc1 (racemic) [Example 24, rac-trans-1-(4-chlorophenyl)-3-(1-(cyclopropylmethyl)-4-(4-methoxyphenyl)-6-oxopiperidin-3-yl)urea]
1 to 1000	1 to 1000	COc1ccc([C@@H]2CCN(C(C)=O)C[C@H]2NC(=O)Nc2cncnc2)cc1 (racemic) [Example 25, rac-trans-1-(1-acetyl-4-(4-methoxyphenyl)piperidin-3-yl)-3-(pyrimidin-5-yl)urea]
1 to 1000		CSc1ccc([C@@H]2CC(=O)NC[C@H]2NC(=O)Nc2ccc(Cl)cc2)cc1 (racemic) [Example 72, rac-trans-1-(4-chlorophenyl)-3-(4-(4-(methylthio)phenyl)-6-oxopiperidin-3-yl)urea]

SMILES	EC50 (FPR1) [nM]	EC50 (FPR2) [nM]
COc1ccc([C@@H]2CCN(C(C)=O)C[C@H]2NC(=O)Nc2ccc(C)nc2)cc1 (racemic) [Example 26, rac-trans-1-(1-acetyl-4-(4-methoxyphenyl)piperidin-3-yl)-3-(6-methylpyridin-3-yl)urea]	1 to 1000	1 to 1000
